Assay results published in the NIST ThermoML archive (doi:10.1016/j.jct.2012.09.015).
Numbers after ± are expanded uncertainties.

Settings: 101.33 kPa, Liquid; for speed of sound: Sing-around technique in a fixed-path interferometer; for mass density: Vibrating tube method

| speed of sound (298.15 K) [m/s] | mass density (298.15 K) [kg/m3] | speed of sound (303.15 K) [m/s] | mass density (303.15 K) [kg/m3] | speed of sound (308.15 K) [m/s] | mass density (308.15 K) [kg/m3] | speed of sound (313.15 K) [m/s] | mass density (313.15 K) [kg/m3] | speed of sound (318.15 K) [m/s] | mass density (318.15 K) [kg/m3] | speed of sound (323.15 K) [m/s] | mass density (323.15 K) [kg/m3] | SMILES |
| --- | --- | --- | --- | --- | --- | --- | --- | --- | --- | --- | --- | --- |
| 1077 ± 2 | 655.21 ± 0.26 | 1054 ± 2 | 650.64 ± 0.26 | 1032 ± 2 | 646.03 ± 0.26 | 1010 ± 2 | 641.37 ± 0.26 | 988 ± 2 | 636.67 ± 0.26 | 965 ± 2 | 631.92 ± 0.26 | CCCCCC [hexane] |
| 1131 ± 1 | 679.91 ± 0.18 | 1109 ± 1 | 675.63 ± 0.19 | 1088 ± 1 | 671.33 ± 0.19 | 1066 ± 1 | 667.01 ± 0.19 | 1045 ± 1 | 662.65 ± 0.19 | 1024 ± 1 | 658.26 ± 0.19 | CCCCCCC [heptane] |

| SMILES | speed of sound (298.15 K) [m/s] | mass density (298.15 K) [kg/m3] | speed of sound (303.15 K) [m/s] | mass density (303.15 K) [kg/m3] | speed of sound (308.15 K) [m/s] | mass density (308.15 K) [kg/m3] | speed of sound (313.15 K) [m/s] | mass density (313.15 K) [kg/m3] | speed of sound (318.15 K) [m/s] | mass density (318.15 K) [kg/m3] | speed of sound (323.15 K) [m/s] | mass density (323.15 K) [kg/m3] |
| --- | --- | --- | --- | --- | --- | --- | --- | --- | --- | --- | --- | --- |
| C1CCCCC1 [cyclohexane] | 1254 ± 1 | 773.86 ± 0.14 | 1229 ± 1 | 769.12 ± 0.14 | 1205 ± 1 | 764.35 ± 0.14 | 1181 ± 1 | 759.56 ± 0.14 | 1157 ± 1 | 754.74 ± 0.14 | 1134 ± 1 | 749.88 ± 0.15 |
